{"source": "ChEMBL document CHEMBL3352005", "about": "“Synthesis of a novel universal opioid receptor agonist with the 1,3,5-trioxazatriquinane skeleton and its pharmacologies” (Bioorg Med Chem Lett, 2014)", "key": {"Mu-type opioid receptor [1]": {"target": "Mu-type opioid receptor (Mus musculus, UniProt P42866)", "sequence (P42866 whole entry)": "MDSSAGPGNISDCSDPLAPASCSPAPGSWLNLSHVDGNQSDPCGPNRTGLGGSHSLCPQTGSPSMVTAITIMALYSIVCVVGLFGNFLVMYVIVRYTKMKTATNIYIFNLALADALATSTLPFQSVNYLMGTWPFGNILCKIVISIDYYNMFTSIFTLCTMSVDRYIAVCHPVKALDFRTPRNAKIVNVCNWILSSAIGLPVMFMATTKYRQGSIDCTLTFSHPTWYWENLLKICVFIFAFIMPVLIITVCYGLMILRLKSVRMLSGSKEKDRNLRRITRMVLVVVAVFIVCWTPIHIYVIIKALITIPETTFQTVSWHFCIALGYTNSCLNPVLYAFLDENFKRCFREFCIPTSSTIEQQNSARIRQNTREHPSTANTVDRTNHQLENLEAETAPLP", "test": "Displacement of [3H]DAMGO from mouse whole brain MOR"}, "[2]": {"target": "Delta-type opioid receptor (Mus musculus, UniProt P32300)", "sequence (P32300 whole entry)": "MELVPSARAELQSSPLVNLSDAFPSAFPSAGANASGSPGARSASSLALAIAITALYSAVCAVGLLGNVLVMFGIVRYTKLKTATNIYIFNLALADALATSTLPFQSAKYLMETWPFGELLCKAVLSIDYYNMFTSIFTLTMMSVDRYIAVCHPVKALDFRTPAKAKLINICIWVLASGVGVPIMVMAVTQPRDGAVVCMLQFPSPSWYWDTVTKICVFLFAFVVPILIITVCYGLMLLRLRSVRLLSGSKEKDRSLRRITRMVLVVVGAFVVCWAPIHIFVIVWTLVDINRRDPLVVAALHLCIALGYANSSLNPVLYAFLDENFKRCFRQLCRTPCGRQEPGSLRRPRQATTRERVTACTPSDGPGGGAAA", "test": "Displacement of [3H]DPDPE from mouse whole brain DOR"}, "[3]": {"target": "Kappa-type opioid receptor (Cavia porcellus, UniProt P41144)", "sequence (P41144 whole entry)": "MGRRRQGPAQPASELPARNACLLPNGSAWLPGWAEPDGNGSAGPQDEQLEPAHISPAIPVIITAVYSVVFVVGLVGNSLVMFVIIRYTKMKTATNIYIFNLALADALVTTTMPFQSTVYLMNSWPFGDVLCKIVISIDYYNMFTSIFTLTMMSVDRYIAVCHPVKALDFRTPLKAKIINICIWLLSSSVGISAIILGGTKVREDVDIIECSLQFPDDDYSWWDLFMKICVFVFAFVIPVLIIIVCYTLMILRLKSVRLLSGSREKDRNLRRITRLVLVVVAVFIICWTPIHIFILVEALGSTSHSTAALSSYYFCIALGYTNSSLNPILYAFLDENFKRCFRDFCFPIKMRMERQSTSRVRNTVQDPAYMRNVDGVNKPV", "test": "Displacement of [3H]U-69593 from guinea pig cerebellum KOR"}, "Mu-type opioid receptor [4]": {"target": "T1, Mu-type opioid receptor (Homo sapiens, UniProt P35372)", "T1 sequence (P35372 whole entry)": "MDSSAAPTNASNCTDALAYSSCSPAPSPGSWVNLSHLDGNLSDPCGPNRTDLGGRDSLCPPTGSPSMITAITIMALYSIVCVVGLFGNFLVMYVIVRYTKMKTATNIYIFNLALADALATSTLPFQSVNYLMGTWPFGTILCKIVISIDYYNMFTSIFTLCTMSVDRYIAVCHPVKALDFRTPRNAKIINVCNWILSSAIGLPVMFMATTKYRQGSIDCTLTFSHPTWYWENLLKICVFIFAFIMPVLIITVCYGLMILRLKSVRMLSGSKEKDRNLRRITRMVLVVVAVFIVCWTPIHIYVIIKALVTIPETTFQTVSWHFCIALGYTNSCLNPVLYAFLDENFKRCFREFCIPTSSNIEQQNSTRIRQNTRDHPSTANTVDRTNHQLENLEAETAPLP", "test": "Agonist activity at human MOR expressed in CHO cells by [35S]GTPgammaS binding assay", "type": "functional, cell-based"}, "Mu-type opioid receptor [5]": {"target": "T1, Mu-type opioid receptor", "test": "Agonist activity at human MOR expressed in CHO cells by [35S]GTPgammaS binding assay relative to DAMGO", "type": "functional, cell-based"}, "[6]": {"target": "T2, Delta-type opioid receptor (Homo sapiens, UniProt P41143)", "T2 sequence (P41143 whole entry)": "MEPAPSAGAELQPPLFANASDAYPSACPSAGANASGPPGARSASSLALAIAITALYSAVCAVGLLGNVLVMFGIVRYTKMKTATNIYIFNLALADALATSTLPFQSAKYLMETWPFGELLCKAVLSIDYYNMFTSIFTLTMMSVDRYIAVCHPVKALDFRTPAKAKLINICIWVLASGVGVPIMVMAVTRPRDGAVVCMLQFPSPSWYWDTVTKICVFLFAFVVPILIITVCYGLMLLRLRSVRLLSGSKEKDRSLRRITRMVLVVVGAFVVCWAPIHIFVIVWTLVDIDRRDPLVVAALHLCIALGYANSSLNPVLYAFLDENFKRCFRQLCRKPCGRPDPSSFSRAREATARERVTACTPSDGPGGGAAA", "test": "Agonist activity at human DOR expressed in CHO cells by [35S]GTPgammaS binding assay", "type": "functional, cell-based"}, "[7]": {"target": "T2, Delta-type opioid receptor", "test": "Agonist activity at human DOR expressed in CHO cells by [35S]GTPgammaS binding assay relative to DPDPE", "type": "functional, cell-based"}, "[8]": {"target": "T3, Kappa-type opioid receptor (Homo sapiens, UniProt P41145)", "T3 sequence (P41145 whole entry)": "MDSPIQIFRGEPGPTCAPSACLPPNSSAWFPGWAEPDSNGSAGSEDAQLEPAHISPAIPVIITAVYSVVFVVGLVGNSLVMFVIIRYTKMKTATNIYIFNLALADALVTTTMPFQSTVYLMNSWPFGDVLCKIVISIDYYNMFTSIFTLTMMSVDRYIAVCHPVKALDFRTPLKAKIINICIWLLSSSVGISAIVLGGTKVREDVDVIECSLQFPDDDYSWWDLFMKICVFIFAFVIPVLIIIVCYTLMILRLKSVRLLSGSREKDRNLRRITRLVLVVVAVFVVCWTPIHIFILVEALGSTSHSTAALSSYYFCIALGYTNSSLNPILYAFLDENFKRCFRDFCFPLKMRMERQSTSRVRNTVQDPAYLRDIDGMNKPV", "test": "Agonist activity at human KOR expressed in CHO cells by [35S]GTPgammaS binding assay", "type": "functional, cell-based"}, "[9]": {"target": "T3, Kappa-type opioid receptor", "test": "Agonist activity at human KOR expressed in CHO cells by [35S]GTPgammaS binding assay relative to U-69593", "type": "functional, cell-based"}}, "data": [{"smiles": "C[C@@]1(c2ccccc2O)O[C@H]2CO[C@@H]3N2[C@H]1O[C@@]3(C)c1ccccc1O", "values": [{"measurement": "Ki", "setting": "Mu-type opioid receptor [1]", "value": "> 1000", "unit": "nM"}, {"measurement": "Ki", "setting": "[2]", "value": "> 1000", "unit": "nM"}, {"measurement": "Ki", "setting": "[3]", "value": "> 1000", "unit": "nM"}]}, {"smiles": "C[C@@]1(c2ccc(O)cc2)O[C@H]2CO[C@H]3CO[C@@H]1N32", "values": [{"measurement": "Ki", "setting": "Mu-type opioid receptor [1]", "value": "> 1000", "unit": "nM"}, {"measurement": "Ki", "setting": "[2]", "value": "> 1000", "unit": "nM"}, {"measurement": "Ki", "setting": "[3]", "value": "> 1000", "unit": "nM"}]}, {"smiles": "C[C@]1(c2ccccc2O)O[C@H]2CO[C@@H]3N2[C@H]1O[C@]3(C)c1ccccc1O", "values": [{"measurement": "Ki", "setting": "Mu-type opioid receptor [1]", "value": "> 1000", "unit": "nM"}, {"measurement": "Ki", "setting": "[2]", "value": "> 1000", "unit": "nM"}, {"measurement": "Ki", "setting": "[3]", "value": "> 1000", "unit": "nM"}]}, {"smiles": "C[C@]1(c2ccccc2O)O[C@H]2CO[C@H]3CO[C@@H]1N32", "values": [{"measurement": "Ki", "setting": "Mu-type opioid receptor [1]", "value": "> 1000", "unit": "nM"}, {"measurement": "Ki", "setting": "[2]", "value": "> 1000", "unit": "nM"}, {"measurement": "Ki", "setting": "[3]", "value": "> 1000", "unit": "nM"}]}, {"smiles": "C[C@@]1(c2ccccc2O)O[C@@H]2N3[C@H]1O[C@](C)(c1ccccc1O)[C@@H]3O[C@]2(C)c1ccccc1O", "values": [{"measurement": "Ki", "setting": "Mu-type opioid receptor [1]", "value": "> 1000", "unit": "nM"}, {"measurement": "Ki", "setting": "[2]", "value": "> 1000", "unit": "nM"}, {"measurement": "Ki", "setting": "[3]", "value": "> 1000", "unit": "nM"}]}, {"smiles": "C[C@@]1(c2ccccc2O)O[C@@H]2N3[C@H]1O[C@@](C)(c1ccccc1O)[C@@H]3O[C@@]2(C)c1ccccc1O", "values": [{"measurement": "Ki", "setting": "Mu-type opioid receptor [1]", "value": "> 1000", "unit": "nM"}, {"measurement": "Ki", "setting": "[2]", "value": "> 1000", "unit": "nM"}, {"measurement": "Ki", "setting": "[3]", "value": "> 1000", "unit": "nM"}]}, {"smiles": "C[C@@]1(c2ccc(O)cc2)O[C@H]2CO[C@@H]3N2[C@H]1O[C@@]3(C)c1ccc(O)cc1", "values": [{"measurement": "Ki", "setting": "Mu-type opioid receptor [1]", "value": "> 1000", "unit": "nM"}, {"measurement": "Ki", "setting": "[2]", "value": "> 1000", "unit": "nM"}, {"measurement": "Ki", "setting": "[3]", "value": "> 1000", "unit": "nM"}]}, {"smiles": "C[C@]1(c2ccc(O)cc2)O[C@H]2CO[C@H]3CO[C@@H]1N32", "values": [{"measurement": "Ki", "setting": "Mu-type opioid receptor [1]", "value": "> 1000", "unit": "nM"}, {"measurement": "Ki", "setting": "[2]", "value": "> 1000", "unit": "nM"}, {"measurement": "Ki", "setting": "[3]", "value": "> 1000", "unit": "nM"}]}, {"smiles": "C[C@@]1(c2ccc(O)cc2)O[C@@H]2N3[C@H]1O[C@@](C)(c1ccc(O)cc1)[C@@H]3O[C@@]2(C)c1ccc(O)cc1", "values": [{"measurement": "Ki", "setting": "Mu-type opioid receptor [1]", "value": "> 1000", "unit": "nM"}, {"measurement": "Ki", "setting": "[2]", "value": "> 1000", "unit": "nM"}, {"measurement": "Ki", "setting": "[3]", "value": "> 1000", "unit": "nM"}]}, {"smiles": "C[C@@]1(c2ccccc2O)O[C@@H]2N3[C@H](CO[C@H]31)O[C@]2(C)c1ccccc1O", "values": [{"measurement": "Ki", "setting": "Mu-type opioid receptor [1]", "value": 20.5, "unit": "nM"}, {"measurement": "Ki", "setting": "[2]", "value": 88.8, "unit": "nM"}, {"measurement": "Ki", "setting": "[3]", "value": 9.17, "unit": "nM"}, {"measurement": "EC50", "setting": "Mu-type opioid receptor [4]", "value": 57.6, "unit": "nM"}, {"measurement": "Emax", "setting": "Mu-type opioid receptor [5]", "value": 89.2, "unit": "%"}, {"measurement": "EC50", "setting": "[6]", "value": 52.7, "unit": "nM"}, {"measurement": "Emax", "setting": "[7]", "value": 73.6, "unit": "%"}, {"measurement": "EC50", "setting": "[8]", "value": 9.95, "unit": "nM"}, {"measurement": "Emax", "setting": "[9]", "value": 131, "unit": "%"}]}, {"smiles": "C[C@]1(c2ccc(O)cc2)O[C@H]2CO[C@@H]3N2[C@H]1O[C@]3(C)c1ccc(O)cc1", "values": [{"measurement": "Ki", "setting": "Mu-type opioid receptor [1]", "value": "> 1000", "unit": "nM"}, {"measurement": "Ki", "setting": "[2]", "value": "> 1000", "unit": "nM"}, {"measurement": "Ki", "setting": "[3]", "value": "> 1000", "unit": "nM"}]}, {"smiles": "C[C@@]1(c2ccc(O)cc2)O[C@@H]2N3[C@H]1O[C@](C)(c1ccc(O)cc1)[C@@H]3O[C@]2(C)c1ccc(O)cc1", "values": [{"measurement": "Ki", "setting": "Mu-type opioid receptor [1]", "value": "> 1000", "unit": "nM"}, {"measurement": "Ki", "setting": "[2]", "value": "> 1000", "unit": "nM"}, {"measurement": "Ki", "setting": "[3]", "value": "> 1000", "unit": "nM"}]}, {"smiles": "C[C@@]1(c2ccccc2O)O[C@H]2CO[C@H]3CO[C@@H]1N32", "values": [{"measurement": "Ki", "setting": "Mu-type opioid receptor [1]", "value": "> 1000", "unit": "nM"}, {"measurement": "Ki", "setting": "[2]", "value": "> 1000", "unit": "nM"}, {"measurement": "Ki", "setting": "[3]", "value": "> 1000", "unit": "nM"}]}, {"smiles": "C[C@@]1(c2ccc(O)cc2)O[C@@H]2N3[C@H]1O[C@](C)(c1ccc(O)cc1)[C@@H]3O[C@@]2(C)c1ccc(O)cc1", "values": [{"measurement": "Ki", "setting": "Mu-type opioid receptor [1]", "value": "> 1000", "unit": "nM"}, {"measurement": "Ki", "setting": "[2]", "value": "> 1000", "unit": "nM"}, {"measurement": "Ki", "setting": "[3]", "value": "> 1000", "unit": "nM"}]}, {"smiles": "C[C@@]1(c2ccccc2O)O[C@@H]2N3[C@H]1O[C@](C)(c1ccccc1O)[C@@H]3O[C@@]2(C)c1ccccc1O", "values": [{"measurement": "Ki", "setting": "Mu-type opioid receptor [1]", "value": "> 1000", "unit": "nM"}, {"measurement": "Ki", "setting": "[2]", "value": "> 1000", "unit": "nM"}, {"measurement": "Ki", "setting": "[3]", "value": "> 1000", "unit": "nM"}]}, {"smiles": "C[C@@]1(c2ccccc2O)O[C@H]2CO[C@@H]3N2[C@H]1O[C@]3(C)c1ccccc1O", "values": [{"measurement": "Ki", "setting": "Mu-type opioid receptor [1]", "value": "> 1000", "unit": "nM"}, {"measurement": "Ki", "setting": "[2]", "value": "> 1000", "unit": "nM"}, {"measurement": "Ki", "setting": "[3]", "value": "> 1000", "unit": "nM"}]}, {"smiles": "C[C@@]1(c2ccc(O)cc2)O[C@@H]2N3[C@H](CO[C@H]31)O[C@]2(C)c1ccc(O)cc1", "values": [{"measurement": "Ki", "setting": "Mu-type opioid receptor [1]", "value": "> 1000", "unit": "nM"}, {"measurement": "Ki", "setting": "[2]", "value": "> 1000", "unit": "nM"}, {"measurement": "Ki", "setting": "[3]", "value": "> 1000", "unit": "nM"}]}, {"smiles": "C[C@@]1(c2ccc(O)cc2)O[C@H]2CO[C@@H]3N2[C@H]1O[C@]3(C)c1ccc(O)cc1", "values": [{"measurement": "Ki", "setting": "Mu-type opioid receptor [1]", "value": "> 1000", "unit": "nM"}, {"measurement": "Ki", "setting": "[2]", "value": "> 1000", "unit": "nM"}, {"measurement": "Ki", "setting": "[3]", "value": "> 1000", "unit": "nM"}]}]}
